# “And” between values parts separate entries of the source, which are not always exact repeats. Equal values may be shown once.
# How the values were obtained:
# [1] = female, CD-1, mouse, in vivo, po, 0.167 h
# Procedure: (§1) Samples were centrifuged at 15,000 rpm for 10 min, then blood plasma was collected from the upper layer and frozen at −80 °C until analysis. […] Sample processing, chromatographic separation, MS, and MS/MS parameters used for analysis were determined by the core. […] Standard curves for peak area ratio of compound to internal standard (Astd/AIstd) vs. compound concentration were used to determine sample analyte concentrations through linear regression with a weighting average of 1/X^2. […] All pharmacokinetic parameters were estimated using non-compartmental analysis with Phoenix/WINONLIN, and provided by the core along with calculated sample analyte concentrations. Data was generated from n ≥ 3 individual animals sampled per time point per compound for each method of dosing.
# [2] = in vivo; conditions: female, CD-1, mouse
# [3] = Compound quantitation in blood and mesenteric lymph nodes; assay type: in vivo, mouse; conditions: mice; for uptake in the mesenteric lymph nodes compared to LP5-37: 4 h after oral 100 mg kg^−1
# Procedure: Whole blood and mesenteric lymph nodes were collected either 30 min or 4 h following compound administration and stored at −20 °C until future processing and analysis by the University of Michigan Pharmacokinetics Core as above, or as outlined below, to determine compound concentrations in each tissue. […] Data was generated from n ≥ 4 individual animals per compound per study group or dose.
# Briefly, acetonitrile was added to a final concentration of 60–80% to bone marrow, whole blood, plasma, lymphatic fluid, lymphatic proteo-lipid sub-fractions, or mesenteric lymph node samples for compound extraction. Extraction was performed by shaking and/or bead rupture using a Precellys Evolution tissue homogenizer (Bertin Technologies SAS). […] Optimization of MS and MS/MS parameters for MRM quantitation and maximum sensitivity of individual compounds was performed using SCIEX Analyst software (AB Sciex). […] All LC-MS/MS acquisitions were performed with an independent standard curve for each group of analytes and for each individual run. All solvents utilized were of Optima LC-MS Grade (Fisher Scientific). Data was generated from n ≥ 2 individual animals per compound per study condition or dose.
# [4] = Pharmacokinetic analysis of plasma after intravenous and oral dosing
# Procedure: as §1
# [5] = system: SET-2 cells; assay: SET-2 proliferation assay (CellTiter-Fluor); assay type: cell-based, human; conditions: 72 h, replicates (Fig. 2d)
# Procedure: Viable cells were counted by CellTiter-Fluor Assay (Promega) according to manufacturer’s protocol, and all fluorescence values were corrected by a no-cell control. […] Caspase activity was measured by Caspase-Glo 3/7 assay (Promega) according to the manufacturer’s protocol, and all luminescence values were corrected by a no-cell control. Dose response proliferation and Caspase activation data was normalized to vehicle treated control cells and analyzed by non-linear regression for determination of IC50 values. Data was generated from n = 3 independent experiments performed in replicate.
# [6] = system: MAPK signaling; conditions: cited from earlier work
smiles,measurement,setting,value
COc1ccc(-c2ccc3c(N4CCOC[C@@H]4C)nc(N4CCOC[C@@H]4C)nc3n2)cc1CO [AZD8055],Concentration,[1],704 ng/mL
same,concentration at 0.167 h,[2]; iv,3300 ng/mL
same,concentration at 0.5 h,[2]; iv,2510 ng/mL
same,concentration at 1 h,[2]; iv,1710 ng/mL
same,concentration at 2 h,[2]; iv,744 ng/mL
same,concentration at 24 h,[2]; iv,1 ng/mL
same,concentration at 0.167 h,[2]; po,626 ng/mL
same,concentration at 0.5 h,[2]; po,3700 ng/mL
same,concentration at 1 h,[2]; po,3440 ng/mL
same,concentration at 2 h,[2]; po,4880 ng/mL
same,concentration at 7 h,[2]; po,3930 ng/mL
same,concentration at 16 h,[2]; po,4430 ng/mL
O=C(NOCCOCCOCCOCCONC(=O)c1ccc(F)c(F)c1Nc1ccc(I)cc1F)c1ccc(F)c(F)c1Nc1ccc(I)cc1F [LP5-37],mesenteric lymph node levels versus blood,[3]; 4 h after oral 400 mg kg^−1,significantly higher than in blood
COCCOCCOCCOCCONC(=O)c1ccc(F)c(F)c1Nc1ccc(I)cc1F [LP5-38],uptake in the mesenteric lymph nodes compared to LP5-37,[3],reduced uptake
"O=C(NOCCO)c1ccc(F)c(F)c1Nc1ccc(I)cc1F [PD0316684, reference compound]",uptake in the mesenteric lymph nodes compared to LP5-37,[3],reduced uptake
same,concentration at 0.167 h,"[4]; female, CD-1, mouse, plasma, iv, 15 mg kg^−1, Concentration (ng/mL), mice, single i.v. LP-182 15 mg kg^−1, 0.167 h, analyte = label, individual animals",771 ng/mL
same,concentration at 1 h,"[4]; female, CD-1, mouse, plasma, iv, 15 mg kg^−1, Concentration (ng/mL), mice, single i.v. LP-182 15 mg kg^−1, 1 h, analyte = label, individual animals",95.3 ng/mL
same,concentration at 2 h,"[4]; female, CD-1, mouse, plasma, iv, 15 mg kg^−1, Concentration (ng/mL), mice, single i.v. LP-182 15 mg kg^−1, 2 h, analyte = label, individual animals",58.1 ng/mL
same,concentration at 4 h,"[4]; female, CD-1, mouse, plasma, iv, 15 mg kg^−1, Concentration (ng/mL), mice, single i.v. LP-182 15 mg kg^−1, 4 h, analyte = label, individual animals",18.6 ng/mL
same,concentration at 7 h,"[4]; female, CD-1, mouse, plasma, iv, 15 mg kg^−1, Concentration (ng/mL), mice, single i.v. LP-182 15 mg kg^−1, 7 h, analyte = label, individual animals",5.74 ng/mL
same,concentration at 16 h,"[4]; female, CD-1, mouse, plasma, iv, 15 mg kg^−1, Concentration (ng/mL), mice, single i.v. LP-182 15 mg kg^−1, 16 h, analyte = label, individual animals",3.59 ng/mL
same,concentration at 0.167 h,"[4]; female, CD-1, mouse, plasma, iv, 15 mg kg^−1, Concentration, Figure 6c, Time 0.167 h, individual replicates",89.6 ng/mL
same,concentration at 1 h,"[4]; female, CD-1, mouse, plasma, iv, 15 mg kg^−1, Concentration, Figure 6c, Time 1 h, individual replicates",39.4 ng/mL
same,concentration at 2 h,"[4]; female, CD-1, mouse, plasma, iv, 15 mg kg^−1, Concentration, Figure 6c, Time 2 h, individual replicates",18.7 ng/mL
same,concentration at 0.167 h,"[4]; female, CD-1, mouse, plasma, iv, 15 mg kg^−1, Concentration, Figure 6d, Time 0.167 h, individual replicates",234 ng/mL
same,concentration at 0.5 h,"[4]; female, CD-1, mouse, plasma, iv, 15 mg kg^−1, Concentration, Figure 6d, Time 0.5 h, individual replicates",241 ng/mL
same,concentration at 1 h,"[4]; female, CD-1, mouse, plasma, iv, 15 mg kg^−1, Concentration, Figure 6d, Time 1 h, individual replicates",112 ng/mL
same,concentration at 2 h,"[4]; female, CD-1, mouse, plasma, iv, 15 mg kg^−1, Concentration, Figure 6d, Time 2 h, individual replicates",62.8 ng/mL
same,concentration at 4 h,"[4]; female, CD-1, mouse, plasma, iv, 15 mg kg^−1, Concentration, Figure 6d, Time 4 h, individual replicates",39.4 ng/mL
same,concentration at 7 h,"[4]; female, CD-1, mouse, plasma, iv, 15 mg kg^−1, Concentration, Figure 6d, Time 7 h, individual replicates",35.3 ng/mL
same,concentration at 24 h,"[4]; female, CD-1, mouse, plasma, iv, 15 mg kg^−1, Concentration, Figure 6d, Time 24 h, individual replicates",3.46 ng/mL
same,concentration at 0.5 h,"[4]; female, CD-1, mouse, plasma, po, 200 mg kg^−1, Concentration, Figure 6c, Time 0.5 h, individual replicates",644 ng/mL
same,concentration at 7 h,"[4]; female, CD-1, mouse, plasma, po, 200 mg kg^−1, Concentration, Figure 6c, Time 7 h, individual replicates",260 ng/mL
same,concentration at 0.5 h,"[4]; female, CD-1, mouse, plasma, po, 200 mg kg^−1, Concentration, Figure 6d, Time 0.5 h, individual replicates",254 ng/mL
same,concentration at 1 h,"[4]; female, CD-1, mouse, plasma, po, 200 mg kg^−1, Concentration, Figure 6d, Time 1 h, individual replicates",156 ng/mL
same,concentration at 7 h,"[4]; female, CD-1, mouse, plasma, po, 200 mg kg^−1, Concentration, Figure 6d, Time 7 h, individual replicates",201 ng/mL
same,concentration at […],"[4]; female, CD-1, mouse, plasma, po, 200 mg kg^−1, Concentration, Figure 6d, Time […], individual replicates",131 ng/mL
same,concentration at 0.167 h,"[4]; female, CD-1, mouse, plasma, po, 400 mg kg^−1, Concentration (ng/mL), mice, single p.o. LP-182 400 mg kg^−1, 0.167 h, analyte = label, individual animals",175 ng/mL
same,concentration at 0.5 h,"[4]; female, CD-1, mouse, plasma, po, 400 mg kg^−1, Concentration (ng/mL), mice, single p.o. LP-182 400 mg kg^−1, 0.5 h, analyte = label, individual animals",399 ng/mL
same,concentration at 1 h,"[4]; female, CD-1, mouse, plasma, po, 400 mg kg^−1, Concentration (ng/mL), mice, single p.o. LP-182 400 mg kg^−1, 1 h, analyte = label, individual animals",500 ng/mL
same,concentration at 4 h,"[4]; female, CD-1, mouse, plasma, po, 400 mg kg^−1, Concentration (ng/mL), mice, single p.o. LP-182 400 mg kg^−1, 4 h, analyte = label, individual animals",76.7 ng/mL
same,concentration at 16 h,"[4]; female, CD-1, mouse, plasma, po, 400 mg kg^−1, Concentration (ng/mL), mice, single p.o. LP-182 400 mg kg^−1, 16 h, analyte = label, individual animals",68.3 ng/mL
same,concentration at 24 h,"[4]; female, CD-1, mouse, plasma, po, 400 mg kg^−1, Concentration (ng/mL), mice, single p.o. LP-182 400 mg kg^−1, 24 h, analyte = label, individual animals",78.6 ng/mL
same,plasma level maintained over 24 h,"[4]; mice, after oral LP-182 400 mg kg^−1, analyte = label",~100 ng/mL
same,Growth (%),[5]; 0.0390625 µM,95.6027% and 82.3855% and 49.4653% and 99.6209% and 66.699% and 96.6844%
same,Growth (%),[5]; 0.078125 µM,101.495% and 98.0639% and 103.106% and 103.604% and 92.0053% and 98.1242%
same,Growth (%),[5]; 0.15625 µM,100.075% and 88.7042% and 52.4529% and 86.403% and 62.7397% and 78.9368%
same,Growth (%),[5]; 0.3125 µM,97.1172% and 98.6318% and 60.2388% and 84.8639% and 78.1339% and 80.2658%
same,Growth (%),[5]; 0.625 µM,88.0297% and 91.2009% and 71.3744% and 84.6376% and 79.2414% and 81.5948%
same,Growth (%),[5]; 5 µM,71.6887% and 74.5167% and 60.9631% and 39.5066% and 70.9074% and 51.4432%
same,Growth (%),[5]; 10 µM,49.6443% and 48.6858% and 23.1653% and 17.5522% and 22.5652% and 22.2053%
same,Growth (%),[5]; 20 µM,15.211% and 15.14% and -3.18% and -3.361% and -4.513% and -3.5163%
O=C(NOC[C@H](O)CO)c1ccc(F)c(F)c1Nc1ccc(I)cc1F [PD0325901],plasma concentration with significant pharmacologic activity against MAPK signaling,[6],> 50 ng mL^−1

# From paper PMC9386018, “A lymphatic-absorbed multi-targeted kinase inhibitor for myelofibrosis therapy” (Nature Communications, 2022)
